Test results: ChEMBL document CHEMBL1201862, “PubChem BioAssay data set” (2004)
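A five-concentration, 48-hour dose response in 96-well plates underlies each endpoint, interpolated linearly between surrounding concentrations. GI50 marks 50% less growth.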 Calls of active or inactive are those of the source. Rule as the data show it: active = GI50 up to about 1.1 µM and inactive = higher.

Experiments:
Assay in all cases: NCI-60 cell line screen, 48 h
A498 = test system: A498
A549 = test system: A549
DU-145 = test system: DU-145
HCT-116 = test system: HCT-116
HOP-92 = test system: HOP-92
Hs-578T = test system: Hs-578T
MDA-MB-435 = test system: MDA-MB-435
MDA-N = test system: MDA-N
OVCAR-3 = test system: OVCAR-3
OVCAR-4 = test system: OVCAR-4
OVCAR-5 = test system: OVCAR-5
SK-MEL-28 = test system: SK-MEL-28
SK-MEL-2 = test system: SK-MEL-2
SN12C = test system: SN12C
SNB-19 = test system: SNB-19
T47D = test system: T47D
U-251 = test system: U-251
UACC-257 = test system: UACC-257
SNB-75 = test system: SNB-75
MCF7 = test system: MCF7

Row | SMILES | GI50 (A498) | GI50 (A549) | GI50 (DU-145) | GI50 (HCT-116) | GI50 (HOP-92) | GI50 (Hs-578T) | GI50 (MDA-MB-435) | GI50 (MDA-N) | GI50 (OVCAR-3) | GI50 (OVCAR-4) | GI50 (OVCAR-5) | GI50 (SK-MEL-28) | GI50 (SK-MEL-2) | GI50 (SN12C) | GI50 (SNB-19) | GI50 (T47D) | GI50 (U-251) | GI50 (UACC-257) | GI50 (SNB-75) | GI50 (MCF7)
1 | COc1cc2c(cc1OC)C(=O)N(c1ccc(O)cc1)C2 | > 100 µM (inactive) | > 100 µM (inactive) | > 100 µM (inactive) | > 100 µM (inactive) | > 100 µM (inactive) | > 100 µM (inactive) | > 100 µM (inactive) | > 100 µM (inactive) | > 100 µM (inactive) | > 100 µM (inactive) | > 100 µM (inactive) | > 100 µM (inactive) | > 100 µM (inactive) | > 100 µM (inactive) | > 100 µM (inactive) | > 100 µM (inactive) | > 100 µM (inactive) | > 100 µM (inactive) | – | –
2 | C[N+](C)(CCNc1ccc(NCC[N+](C)(C)Cc2ccc([N+](=O)[O-])cc2)c2c1C(=O)c1c(O)ccc(O)c1C2=O)Cc1ccc([N+](=O)[O-])cc1 | > 50 µM (inactive) | 28.2 µM (inactive) | 25.5 µM (inactive) | 9.53 µM (inactive) | – | > 50 µM (inactive) | > 50 µM (inactive) | 46.7 µM (inactive) | > 50 µM (inactive) | > 50 µM (inactive) | > 50 µM (inactive) | > 50 µM (inactive) | > 50 µM (inactive) | > 50 µM (inactive) | – | > 50 µM (inactive) | > 50 µM (inactive) | > 50 µM (inactive) | > 50 µM (inactive) | –
3 | C(=N\c1ccc(-c2nc3ccccc3s2)cc1)/c1cccs1 | 25.1 µM (inactive) | 57.7 µM (inactive) | 69.8 µM (inactive) | 52.1 µM (inactive) | 28.4 µM (inactive) | 41.7 µM (inactive) | 41.9 µM (inactive) | 39.4 µM (inactive) | 42.5 µM (inactive) | 39.9 µM (inactive) | 89.1 µM (inactive) | > 100 µM (inactive) | 38.2 µM (inactive) | 40.6 µM (inactive) | 88.3 µM (inactive) | 22.8 µM (inactive) | 49.2 µM (inactive) | 38.2 µM (inactive) | 29.9 µM (inactive) | –
4 | CNC(=O)N(CCC#N)[C@H]1CCCC[C@@H]1N(C(=O)NC)c1ccccc1 | – | > 100 µM (inactive) | > 100 µM (inactive) | > 100 µM (inactive) | > 100 µM (inactive) | – | > 100 µM (inactive) | > 100 µM (inactive) | > 100 µM (inactive) | > 100 µM (inactive) | > 100 µM (inactive) | > 100 µM (inactive) | > 100 µM (inactive) | > 100 µM (inactive) | > 100 µM (inactive) | > 100 µM (inactive) | > 100 µM (inactive) | > 100 µM (inactive) | > 100 µM (inactive) | > 100 µM (inactive)
5 | CC(=O)CC1(OC(=O)C2C(C=C(C)C)C2(C)C)C(=O)Nc2ccccc21 (configuration not stated) | > 100 µM (inactive) | > 100 µM (inactive) | > 100 µM (inactive) | > 100 µM (inactive) | – | > 100 µM (inactive) | > 100 µM (inactive) | > 100 µM (inactive) | 54.2 µM (inactive) | 84.9 µM (inactive) | > 100 µM (inactive) | > 100 µM (inactive) | > 100 µM (inactive) | > 100 µM (inactive) | > 100 µM (inactive) | > 100 µM (inactive) | > 100 µM (inactive) | > 100 µM (inactive) | 51.3 µM (inactive) | –
6 | CCOC(=O)c1c[nH]c(C(=O)OCC)c1-c1cccn1-c1ccccc1 | 27 µM (inactive) | 26.6 µM (inactive) | 43.2 µM (inactive) | 15.6 µM (inactive) | 23.3 µM (inactive) | 9.64 µM (inactive) | 27.5 µM (inactive) | 31.7 µM (inactive) | 16.8 µM (inactive) | – | > 100 µM (inactive) | 32.4 µM (inactive) | 14.5 µM (inactive) | 27 µM (inactive) | 31.7 µM (inactive) | 28.1 µM (inactive) | 19.2 µM (inactive) | 26.1 µM (inactive) | 7.06 µM (inactive) | –
7 | Oc1ccc2ccccc2c1/N=N\c1cccc2ccccc12 | – | > 100 µM (inactive) | > 100 µM (inactive) | > 100 µM (inactive) | > 100 µM (inactive) | > 100 µM (inactive) | > 100 µM (inactive) | > 100 µM (inactive) | > 100 µM (inactive) | > 100 µM (inactive) | > 100 µM (inactive) | > 100 µM (inactive) | > 100 µM (inactive) | > 100 µM (inactive) | > 100 µM (inactive) | > 100 µM (inactive) | > 100 µM (inactive) | > 100 µM (inactive) | > 100 µM (inactive) | –
8 | CC(C)(C)[Si](C)(C)OCC1OC(n2ccc(N)nc2=O)C(O[Si](C)(C)C(C)(C)C)C1O[Si](C)(C)C(C)(C)C (configuration not stated) | – | 3.44 µM (inactive) | 9.59 µM (inactive) | 3.14 µM (inactive) | 2.17 µM (inactive) | 2.55 µM (inactive) | – | 3.89 µM (inactive) | 1.73 µM (inactive) | 0.0356 µM (active) | 1.63 µM (inactive) | – | 2.07 µM (inactive) | 3.65 µM (inactive) | 3.24 µM (inactive) | 2.7 µM (inactive) | – | 3.33 µM (inactive) | 3.79 µM (inactive) | 2.14 µM (inactive)
9 | O=C(CSCC(=O)N/N=C\c1cc(Cl)cc(Cl)c1O)N/N=C\c1cc(Cl)cc(Cl)c1O | – | 18.7 µM (inactive) | 8.91 µM (inactive) | 2.9 µM (inactive) | 5.73 µM (inactive) | 2.08 µM (inactive) | 8.04 µM (inactive) | – | 1.69 µM (inactive) | 2.42 µM (inactive) | 10.4 µM (inactive) | 5.21 µM (inactive) | 2.51 µM (inactive) | 4.33 µM (inactive) | 16.7 µM (inactive) | 3.08 µM (inactive) | 0.515 µM (active) | 5.28 µM (inactive) | 12.4 µM (inactive) | 7.29 µM (inactive)
10 | C/C(=C\CO)CC/C=C(\C)CNc1ccccc1 | – | 50.8 µM (inactive) | 37.8 µM (inactive) | 54.5 µM (inactive) | – | 29.8 µM (inactive) | 36.1 µM (inactive) | – | 18.2 µM (inactive) | – | > 100 µM (inactive) | 51.1 µM (inactive) | – | 57.5 µM (inactive) | 62.5 µM (inactive) | 14.7 µM (inactive) | 59.4 µM (inactive) | 27.3 µM (inactive) | 0.0498 µM (active) | 78.7 µM (inactive)
11 | COc1c2c(c(CC=C(C)C)c3oc(=O)c(-c4ccc(O)cc4)c(O)c13)OC(C)(C)C=C2 [LONCHOCARPIC ACID] | 31.8 µM (inactive) | 19.1 µM (inactive) | 38.1 µM (inactive) | 15.7 µM (inactive) | 27.2 µM (inactive) | 36.2 µM (inactive) | 15.2 µM (inactive) | – | 15.7 µM (inactive) | 17.7 µM (inactive) | 42.9 µM (inactive) | 25.9 µM (inactive) | 19.6 µM (inactive) | 27.5 µM (inactive) | 29.5 µM (inactive) | 14.3 µM (inactive) | 8.26 µM (inactive) | 27.7 µM (inactive) | – | 16.8 µM (inactive)
12 | CC(=O)Oc1ccc2cc(Oc3ccc(Cl)c(Cl)c3)c(=O)oc2c1 | 22.3 µM (inactive) | 31.3 µM (inactive) | 39.3 µM (inactive) | 18.5 µM (inactive) | 20.3 µM (inactive) | 33 µM (inactive) | – | 25.9 µM (inactive) | 22.9 µM (inactive) | 41.8 µM (inactive) | 72.6 µM (inactive) | 25.3 µM (inactive) | – | 24.9 µM (inactive) | 27.9 µM (inactive) | 11.5 µM (inactive) | 16 µM (inactive) | 25.1 µM (inactive) | 22 µM (inactive) | 34.8 µM (inactive)
13 | N=C(N)N/N=C/c1c(-c2cccc([N+](=O)[O-])c2)nc2n1CCS2 | 17 µM (inactive) | 18.5 µM (inactive) | 19 µM (inactive) | 20.5 µM (inactive) | 14.9 µM (inactive) | 7.1 µM (inactive) | 28.2 µM (inactive) | – | 30.3 µM (inactive) | 13.9 µM (inactive) | 35 µM (inactive) | 19.8 µM (inactive) | 17.2 µM (inactive) | 22.7 µM (inactive) | 13.8 µM (inactive) | 8.02 µM (inactive) | 14.9 µM (inactive) | 19.1 µM (inactive) | 9.68 µM (inactive) | 11 µM (inactive)
14 | CCCCCCCCC[C@@H]1C[C@@H]2CCC3C(C(=O)OCCCCNC(=O)OCc4ccccc4)=C(C)N=C(N1)N32 (some centres not stated) | 4.66 µM (inactive) | 4.57 µM (inactive) | 4.76 µM (inactive) | 3.11 µM (inactive) | 2.78 µM (inactive) | 2.51 µM (inactive) | 2.78 µM (inactive) | – | 4.04 µM (inactive) | 3.97 µM (inactive) | 5.78 µM (inactive) | 3.61 µM (inactive) | 1.92 µM (inactive) | 3.13 µM (inactive) | 6.18 µM (inactive) | 2.57 µM (inactive) | 2.9 µM (inactive) | 3.27 µM (inactive) | 4.59 µM (inactive) | 1.94 µM (inactive)
15 | O=c1[nH]c(=O)n(Cc2ccccc2CO)cc1Sc1ccccc1 | – | 18.5 µM (inactive) | 58.9 µM (inactive) | 25.3 µM (inactive) | 36.2 µM (inactive) | 23.1 µM (inactive) | 20 µM (inactive) | – | 19.5 µM (inactive) | 50 µM (inactive) | > 100 µM (inactive) | 34.8 µM (inactive) | 19.3 µM (inactive) | 34.8 µM (inactive) | 35.7 µM (inactive) | 62.4 µM (inactive) | 34.4 µM (inactive) | 21.6 µM (inactive) | 36.6 µM (inactive) | 22.3 µM (inactive)
